Patent US12492182B2, “Hydroxytriazine compounds and pharmaceutical use thereof” (Japan Tobacco Inc., priority 2015, dated 2025)
Like-named read-outs stand apart in the source and are kept apart here.

Tests used:
[1] = Measurement of solubility in Britton-Robinson buffer solution (pH 8.5) containing 0.5 W/V % polysorbate 80; type: physicochemical; conditions: Britton-Robinson buffer pH 8.5 containing 0.5 W/V % polysorbate 80, 20° C., 18 hr
Protocol: Experimental Example 5: Measurement of Solubility
(2) Britton-Robinson Buffer Solution (pH 8.5) Containing 0.5 W/V % Polysorbate 80
The test article was weighted in glass microtube, and dispersed in Britton-Robinson buffer solution (pH 8.5, 1.5 mL) containing 0.5 W/V % polysorbate 80 to prepare a suspension. The suspension was shaked at 20° C. for 18 hr, and filtered through a membrane filter (0.45 μm), and the filtrate was used as a sample.
(3) Preparation of Standard Solution and Sample Solution, and Measurement of Solubility
Sample solution was prepared by appropriately diluting sample with a mixture of water/acetonitrile (1:1). Standard solution was prepared by precisely weighting the test article, and then diluting the test article with a mixture of water/acetonitrile (1:1). The standard solution and sample solution were analyzed by liquid chromatography, and the test article content of the sample solution was calculated according to external standard method, based on which the solubility was determined.

human mPGES-1 = biological target: T1, human mPGES-1 (Homo sapiens, UniProt O14684); assay: Evaluation of human mPGES-1 enzyme inhibitory activity (HTRF measurement of PGE2); type: biochemical; conditions: IC50 value; microsome fraction of CHO-S cells expressing human mPGES-1, PGH2 substrate, PGE2 by HTRF; read-out: humans mPGES-1 enzyme inhibitory activity
T1 construct: made in house; host or cells: Chinese hamster ovary-derived cells (FreeStyle CHO-S), transient transfection of pcDNA3.1(+)/human mPGES-1; microsome fraction
T1 sequence (O14684 1-152): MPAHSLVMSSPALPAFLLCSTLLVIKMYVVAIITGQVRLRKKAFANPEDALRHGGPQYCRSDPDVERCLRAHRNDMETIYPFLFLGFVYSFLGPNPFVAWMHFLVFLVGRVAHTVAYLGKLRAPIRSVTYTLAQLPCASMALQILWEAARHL
Method in brief: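 Enzyme source was a microsome fraction from CHO-S cells transfected with human mPGES-1, diluted to 5 μg/mL protein in reduced GSH (12.5 mmol/L KPB), preincubated with compound for 10 min at room temperature with 2% final DMSO. Reaction started with PGH2 and run 45 seconds at room temperature. PGE2 measured by HTRF.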

A549 cell = assay: Evaluation of PGE2 production inhibitory action using A549 cell (IL-1β stimulated); type: cell-based, human; conditions: recombinant human IL-1β stimulation, read-out: cell PGE2 production inhibitory activity (IC50 value)
Method in brief: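 A549 cells (human lung cancer) in F-12K with 2% FBS were preincubated with test article for 30 min, then stimulated with IL-1β (1 ng/mL final) for 18 hr at 37 °C; 0.5% DMSO final. Supernatant PGE2 was measured by HTRF against a standard curve; inhibition is relative to vehicle and unstimulated blank wells.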

Row | Structure (SMILES) | 0.5% polysorbate 80 solubility (%) at pH 8.5 [1] [%] | IC50 (human mPGES-1) [nM] | IC50 (A549 cell; Homo sapiens, A549, A549 cell) [nM] | IC50 (A549 cell; A549 cell) [nM]
1 | CO[C@](C)(C(=O)NCc1ccc(Cl)c(-c2nc(O)nc(-c3cccc(C(C)(C)C)c3)n2)c1)C(F)(F)F [Example 66, (R)—N-{3-[4-(3-tert-butylphenyl)-6-hydroxy-1,3,5-triazin-2-yl]-4-chlorobenzyl}-3,3,3-trifluoro-2-methoxy-2-methylpropionamide] | 0.136 | 0.7 | 3.8 | 
2 | CC(C)c1cccc(-c2nc(O)nc(-c3cc(CNC(=O)C4(C(F)(F)F)CCCCC4)ccc3Cl)n2)c1 [Example 71, 1-trifluoromethylcyclohexanecarboxylic acid 4-chloro-3-[4-hydroxy-6-(3-isopropylphenyl)-1,3,5-triazin-2-yl]benzylamide] | 0.057 | 0.7 | 3.4 | 
3 | CCC[C@@H](C)Oc1ccc(-c2nc(O)nc(-c3cc(CNC(=O)C(CC)(CC)OC)ccc3Cl)n2)cn1 [Example 79, 2-ethyl-N-(4-chloro-3-{4-hydroxy-6-[6-((R)-1-methylbutoxy)pyridin-3-yl]-1,3,5-triazin-2-yl}benzyl)-2-methoxybutanamide] | 0.157 | 4.6 | 2.6 | 
4 | CCC[C@@H](C)Oc1ccc(-c2nc(O)nc(-c3cc(CNC(=O)C4(C(F)F)CCCC4)ccc3Cl)n2)cn1 [Example 126] |  | 3.1 | 2.5 | 
5 | CCC[C@@H](C)Oc1ccc(-c2nc(O)nc(-c3cc(CNC(=O)C4(C(F)F)CCCCC4)ccc3Cl)n2)cn1 [Example 127] |  | 2.4 | 0.9 | 
6 | CCC(OC)(C(=O)NCc1ccc(Cl)c(-c2nc(O)nc(-c3cccc(C(C)(C)C)c3)n2)c1)C(F)(F)F (stereo not shown) [Example 133] |  | 1.4 |  | 2.4
7 | CCC(OC)(C(=O)NCc1ccc(Cl)c(-c2nc(O)nc(-c3cccc(C(C)(C)C)c3)n2)c1)C(F)(F)F (stereo not shown) [Example 135] |  | 2 |  | 5.4
8 | CCC(OC)(C(=O)NCc1ccc(Cl)c(-c2nc(O)nc(-c3cccc(C4(C)CC4)c3)n2)c1)C(F)(F)F (stereo not shown) [Example 136] |  | 1.2 | 10 | 
9 | CCC(OC)(C(=O)NCc1ccc(Cl)c(-c2nc(O)nc(-c3cccc(C4(C)CC4)c3)n2)c1)C(F)(F)F (stereo not shown) [Example 138] |  | 1.5 |  | 8.4
10 | CCC[C@H](C)Oc1ccc(-c2nc(O)nc(-c3cc(CNC(=O)C4(C(F)(F)F)CCCC4)ccc3Cl)n2)cn1 [Example 140] |  | 10 | 0.8 | 
11 | CCC[C@H](C)Oc1ccc(-c2nc(O)nc(-c3cc(CNC(=O)C4(CF)CCCCCC4)ccc3Cl)n2)cn1 [Example 141] |  | 14 | 3.8 | 

Second part, the compound after the results:

Row | 0.5% polysorbate 80 solubility (%) at pH 8.5 [1] [%] | IC50 (human mPGES-1) [nM] | IC50 (A549 cell; Homo sapiens, A549, A549 cell) [nM] | IC50 (A549 cell; A549 cell) [nM] | Structure (SMILES)
12 | 0.071 | 2.1 | 5 |  | CCCCCCOc1ccc(-c2nc(O)nc(-c3cc(CNC(=O)C(C)(C)OC)ccc3Cl)n2)cn1 [Example 81, N-{4-chloro-3-[4-(6-hexyloxypyridin-3-yl)-6-hydroxy-1,3,5-triazin-2-yl]benzyl}-2-methoxy-2-methylpropionamide]
13 | 0.032 | 2.6 | 2.1 |  | CC(C)(C)c1cccc(-c2nc(O)nc(-c3cc(CNC(=O)C4(C(F)(F)F)CCCCC4)ccc3Cl)n2)c1 [Example 107, 1-trifluoromethylcyclohexanecarboxylic acid 3-[4-(3-tert-butylphenyl)-6-hydroxy-1,3,5-triazin-2-yl]-4-chlorobenzylamide]
14 |  | 2.6 | 2.5 |  | CCC[C@@H](C)Oc1ccc(-c2nc(O)nc(-c3cc(CNC(=O)C(CC)(CC)CF)ccc3Cl)n2)cn1 [Example 124]
15 |  | 6 | 1.6 |  | CCC[C@@H](C)Oc1ccc(-c2nc(O)nc(-c3cc(CNC(=O)C4(C(F)(F)F)CCCC4)ccc3Cl)n2)cn1 [Example 125]
16 |  | 2.2 | 1.3 |  | CCC[C@@H](C)Oc1ccc(-c2nc(O)nc(-c3cc(CNC(=O)C4(CF)CCCCC4)ccc3Cl)n2)cn1 [Example 128]
17 |  | 3.8 | 1.2 |  | CCC[C@H](C)Oc1ccc(-c2nc(O)nc(-c3cc(CNC(=O)C(CC)(CC)C(F)F)ccc3Cl)n2)cn1 [Example 130]
18 | 0.109 | 2.9 | 1.9 |  | CCC[C@H](C)Oc1ccc(-c2nc(O)nc(-c3cc(CNC(=O)C(CC)(CC)CF)ccc3Cl)n2)cn1 [Example 131]
19 |  | 4.7 | 2.6 |  | CCC(OC)(C(=O)NCc1ccc(Cl)c(-c2nc(O)nc(-c3ccc(Cl)c(C(C)C)c3)n2)c1)C(F)(F)F (stereo not shown) [Example 137]
20 |  | 5.4 |  | 2.1 | CCC(OC)(C(=O)NCc1ccc(Cl)c(-c2nc(O)nc(-c3ccc(Cl)c(C(C)C)c3)n2)c1)C(F)(F)F (stereo not shown) [Example 139]
